Source: ChEMBL document CHEMBL1156762, “Deciphering the mechanism of carbonic anhydrase inhibition with coumarins and thiocoumarins” (J Med Chem, 2010)

How the values were obtained:
Carbonic anhydrase 3 = Carbonic anhydrase 3 (Homo sapiens, UniProt P07451)
Carbonic anhydrase 6 = Carbonic anhydrase 6 (Homo sapiens, UniProt P23280)
Carbonic anhydrase 13 = Carbonic anhydrase 13 (Mus musculus, UniProt Q9D6N1)
Carbonic anhydrase 15 = target: T1, Carbonic anhydrase 15 (Mus musculus, UniProt Q99N23)
T1 sequence (Q99N23 whole entry): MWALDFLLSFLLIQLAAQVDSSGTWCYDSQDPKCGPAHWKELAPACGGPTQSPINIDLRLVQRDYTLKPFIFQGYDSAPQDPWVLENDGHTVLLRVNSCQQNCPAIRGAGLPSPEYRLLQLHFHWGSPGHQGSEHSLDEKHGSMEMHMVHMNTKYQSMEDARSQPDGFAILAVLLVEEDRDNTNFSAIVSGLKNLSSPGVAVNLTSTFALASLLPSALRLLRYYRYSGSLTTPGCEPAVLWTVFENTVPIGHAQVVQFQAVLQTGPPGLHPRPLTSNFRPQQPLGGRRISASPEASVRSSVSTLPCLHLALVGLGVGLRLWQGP

Carbonic anhydrase 9 = Carbonic anhydrase 9 (Homo sapiens, UniProt Q16790)
Carbonic anhydrase 4 = Carbonic anhydrase 4 (Homo sapiens, UniProt P22748)
Carbonic anhydrase 2 [1] = target: T2, Carbonic anhydrase 2 (Homo sapiens, UniProt P00918)
[2] = target: Carbonic anhydrase 5A, mitochondrial (Homo sapiens, UniProt P35218)
[3] = target: Carbonic anhydrase 5B, mitochondrial (Homo sapiens, UniProt Q9Y2D0)
Carbonic anhydrase 7 = Carbonic anhydrase 7 (Homo sapiens, UniProt P43166)
Carbonic anhydrase 12 = Carbonic anhydrase 12 (Homo sapiens, UniProt O43570)
Carbonic anhydrase 14 = Carbonic anhydrase 14 (Homo sapiens, UniProt Q9ULX7)
Carbonic anhydrase 2 [4] = target: T2, Carbonic anhydrase 2; remark: listed apart in the source

Chain of Carbonic anhydrase 6 (P23280 whole entry): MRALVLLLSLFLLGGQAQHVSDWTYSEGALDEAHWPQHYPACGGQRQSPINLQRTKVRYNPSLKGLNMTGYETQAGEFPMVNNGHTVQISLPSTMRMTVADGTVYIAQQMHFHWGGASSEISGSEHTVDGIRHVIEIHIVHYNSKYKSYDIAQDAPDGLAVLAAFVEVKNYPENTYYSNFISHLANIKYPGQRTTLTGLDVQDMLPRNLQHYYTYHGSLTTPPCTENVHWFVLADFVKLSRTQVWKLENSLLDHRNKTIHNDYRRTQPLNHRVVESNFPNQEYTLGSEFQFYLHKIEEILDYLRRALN
Chain of Carbonic anhydrase 5B, mitochondrial (Q9Y2D0 whole entry): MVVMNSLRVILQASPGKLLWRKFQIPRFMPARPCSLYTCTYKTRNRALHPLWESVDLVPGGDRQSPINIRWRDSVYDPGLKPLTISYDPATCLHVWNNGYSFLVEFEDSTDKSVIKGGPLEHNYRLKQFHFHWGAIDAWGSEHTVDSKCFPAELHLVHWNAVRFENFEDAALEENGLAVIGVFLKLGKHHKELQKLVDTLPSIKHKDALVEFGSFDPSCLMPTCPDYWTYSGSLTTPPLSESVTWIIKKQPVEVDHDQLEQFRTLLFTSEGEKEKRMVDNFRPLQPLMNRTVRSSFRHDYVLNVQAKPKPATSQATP
Chain of Carbonic anhydrase 3 (P07451 whole entry): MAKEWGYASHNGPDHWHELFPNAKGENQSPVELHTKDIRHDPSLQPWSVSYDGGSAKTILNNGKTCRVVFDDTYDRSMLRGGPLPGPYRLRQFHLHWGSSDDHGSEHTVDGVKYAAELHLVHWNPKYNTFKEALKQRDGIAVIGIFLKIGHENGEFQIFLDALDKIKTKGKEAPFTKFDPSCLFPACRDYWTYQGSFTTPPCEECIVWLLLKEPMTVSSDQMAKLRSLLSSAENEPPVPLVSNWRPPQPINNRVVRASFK
Chain of Carbonic anhydrase 13 (Q9D6N1 whole entry): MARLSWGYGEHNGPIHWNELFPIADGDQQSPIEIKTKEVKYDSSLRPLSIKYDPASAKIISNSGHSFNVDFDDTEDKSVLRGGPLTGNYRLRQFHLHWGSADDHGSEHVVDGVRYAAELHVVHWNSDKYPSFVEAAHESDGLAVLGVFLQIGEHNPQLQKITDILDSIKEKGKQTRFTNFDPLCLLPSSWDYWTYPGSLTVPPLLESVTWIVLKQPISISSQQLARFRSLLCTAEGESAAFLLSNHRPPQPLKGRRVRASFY
Chain of Carbonic anhydrase 14 (Q9ULX7 whole entry): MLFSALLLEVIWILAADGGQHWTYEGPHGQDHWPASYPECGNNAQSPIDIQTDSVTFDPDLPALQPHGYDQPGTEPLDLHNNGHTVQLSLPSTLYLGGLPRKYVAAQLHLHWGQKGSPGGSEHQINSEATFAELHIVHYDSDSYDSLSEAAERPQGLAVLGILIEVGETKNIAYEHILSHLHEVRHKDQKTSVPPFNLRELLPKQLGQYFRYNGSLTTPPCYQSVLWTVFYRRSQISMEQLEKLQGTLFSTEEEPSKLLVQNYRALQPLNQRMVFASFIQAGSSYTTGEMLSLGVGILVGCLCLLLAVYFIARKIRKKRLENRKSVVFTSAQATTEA
Chain of Carbonic anhydrase 5A, mitochondrial (P35218 whole entry): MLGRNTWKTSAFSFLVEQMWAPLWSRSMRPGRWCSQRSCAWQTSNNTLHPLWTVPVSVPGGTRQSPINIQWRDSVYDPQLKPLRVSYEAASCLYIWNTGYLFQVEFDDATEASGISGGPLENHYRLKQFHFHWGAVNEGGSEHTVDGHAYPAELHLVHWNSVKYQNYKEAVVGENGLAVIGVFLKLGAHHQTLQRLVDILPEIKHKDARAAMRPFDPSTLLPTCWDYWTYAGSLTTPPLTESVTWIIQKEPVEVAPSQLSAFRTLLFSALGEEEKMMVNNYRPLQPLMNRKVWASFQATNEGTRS
Chain of Carbonic anhydrase 7 (P43166 whole entry): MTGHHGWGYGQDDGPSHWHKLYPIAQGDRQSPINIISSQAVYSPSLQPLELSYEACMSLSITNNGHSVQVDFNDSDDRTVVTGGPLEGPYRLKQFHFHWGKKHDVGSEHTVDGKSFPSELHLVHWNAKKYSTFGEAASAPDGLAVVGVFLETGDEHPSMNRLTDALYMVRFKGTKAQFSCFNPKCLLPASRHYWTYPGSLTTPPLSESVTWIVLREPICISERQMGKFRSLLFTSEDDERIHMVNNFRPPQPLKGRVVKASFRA
Chain of Carbonic anhydrase 4 (P22748 whole entry): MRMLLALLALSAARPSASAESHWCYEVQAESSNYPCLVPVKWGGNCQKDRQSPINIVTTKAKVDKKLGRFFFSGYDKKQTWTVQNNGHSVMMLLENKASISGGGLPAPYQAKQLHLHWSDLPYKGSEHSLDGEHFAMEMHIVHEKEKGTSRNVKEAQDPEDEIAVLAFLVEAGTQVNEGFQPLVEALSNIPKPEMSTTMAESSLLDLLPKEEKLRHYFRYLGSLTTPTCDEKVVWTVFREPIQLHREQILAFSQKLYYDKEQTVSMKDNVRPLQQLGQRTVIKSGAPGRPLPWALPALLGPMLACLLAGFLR
Chain of Carbonic anhydrase 12 (O43570 whole entry): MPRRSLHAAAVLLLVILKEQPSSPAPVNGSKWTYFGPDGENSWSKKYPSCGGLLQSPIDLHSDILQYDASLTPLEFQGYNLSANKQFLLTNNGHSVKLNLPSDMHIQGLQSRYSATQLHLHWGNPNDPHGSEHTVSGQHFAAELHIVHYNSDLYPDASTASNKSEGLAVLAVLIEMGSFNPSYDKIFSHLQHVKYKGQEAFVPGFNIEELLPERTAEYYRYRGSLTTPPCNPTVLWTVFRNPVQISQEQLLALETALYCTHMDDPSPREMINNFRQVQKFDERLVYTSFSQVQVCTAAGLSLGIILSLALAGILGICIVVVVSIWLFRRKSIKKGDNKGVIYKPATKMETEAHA

Ki (Carbonic anhydrase 3) [µM]	Ki (Carbonic anhydrase 6) [µM]	Ki (Carbonic anhydrase 13) [µM]	Ki (Carbonic anhydrase 15) [µM]	Ki (Carbonic anhydrase 9) [µM]	Ki (Carbonic anhydrase 4) [µM]	Ki (Carbonic anhydrase 2 [1]) [µM]	Ki [2] [µM]	Ki [3] [µM]	Ki (Carbonic anhydrase 7) [µM]	Ki (Carbonic anhydrase 12) [µM]	Ki (Carbonic anhydrase 14) [µM]	Ki (Carbonic anhydrase 2 [4]) [µM]	Structure (SMILES)
–	–	–	–	5.4	–	–	–	–	–	–	–	–	COc1cccc2cc(C(=O)O)c(=O)oc12
–	–	7.4	7.4	8.7	6.5	–	–	–	–	–	–	–	COC(=O)c1cc2cc(CO)ccc2oc1=O
6.6	31.3	20.3	5.6	6.5	3.8	> 500	9	6.8	5.1	2.9	7.4	–	O=C(O)c1cc2ccccc2oc1=O [COUMARIN-3-CARBOXYLIC ACID]
–	–	0.045	–	4.1	–	–	–	–	–	–	–	–	COc1ccc2c(C(=O)O)cc(=O)oc2c1
161	61.2	–	> 500	–	7.8	–	> 500	–	9.1	–	–	–	COc1ccc2ccc(=O)oc2c1 [HERNIARIN]
> 500	31.7	–	–	0.048	–	–	–	–	29.6	–	–	–	Cc1ccc2oc(=O)c(C(=O)O)cc2c1
60.9	1.5	–	–	6.2	0.048	24.6	3	2.9	0.045	25.6	4.6	213	CCOC(=O)c1cc2cc(CO)ccc2oc1=O
9	10.5	8.1	7.2	5.7	4.9	13.4	8.7	7.6	4.9	6.8	39.6	0.059	COc1ccc2oc(=O)c(C(=O)O)cc2c1
–	–	3.1	8.6	–	–	–	–	–	–	–	–	–	O=C(O)c1cc2cc(CO)ccc2oc1=O
29	5.8	27.4	76.3	1.6	22.7	–	7.3	60.9	7.2	4.7	4.7	–	CCOc1ccc2ccc(=O)oc2c1
71.7	42	0.045	6.6	–	7.2	–	–	8	–	–	–	–	CCOC(=O)c1cc2ccc(OC)cc2oc1=O

The next lines start with the compound.

Structure (SMILES)	Ki (Carbonic anhydrase 3) [µM]	Ki (Carbonic anhydrase 6) [µM]	Ki (Carbonic anhydrase 13) [µM]	Ki (Carbonic anhydrase 15) [µM]	Ki (Carbonic anhydrase 9) [µM]	Ki (Carbonic anhydrase 4) [µM]	Ki (Carbonic anhydrase 2 [1]) [µM]	Ki [2] [µM]	Ki [3] [µM]	Ki (Carbonic anhydrase 7) [µM]	Ki (Carbonic anhydrase 12) [µM]	Ki (Carbonic anhydrase 14) [µM]	Ki (Carbonic anhydrase 2 [4]) [µM]
O=C(O)c1cc2ccccc2sc1=O	> 500	8.8	5.6	4.8	–	–	–	–	–	–	–	–	–
NCc1ccc2oc(=O)ccc2c1	–	–	0.04	–	8.4	–	–	–	–	–	–	–	–
CCCCOc1ccc2ccc(=O)oc2c1 [7-BUTOXYCOUMARIN]	–	–	6.1	65.2	4.9	–	–	9	–	–	–	–	–
CCCOc1ccc2ccc(=O)oc2c1 [7-PROPOXYCOUMARIN]	> 500	–	6.6	–	–	24.6	–	–	–	–	–	–	–
O=c1ccc2cc(CO)ccc2o1	–	–	0.047	7.4	8.4	–	–	–	–	–	–	–	–
O=c1ccc2ccc(CCc3ccccc3)cc2o1	–	8.5	7.3	44.5	5.8	–	–	–	–	–	–	–	–
COc1cc2oc(=O)ccc2cc1[C@@H](O)CC(C)C	–	–	9.9	93.1	–	–	–	–	–	–	–	–	–
O=c1ccc2cc(C[N+]34CN5CN(CN(C5)C3)C4)ccc2o1	–	–	3.8	–	3	–	–	–	–	–	–	–	–
O=c1ccc2ccccc2o1 [COUMARIN]	5.6	–	–	–	–	62.2	–	–	–	3.3	–	–	–
